Measurements from ChEMBL document CHEMBL4507259 (2021).

Legend:
[1] = target: Delta-type opioid receptor (Homo sapiens) (UniProt P41143); experiment: delta (DOP) (h) CEREP ligand profiling; settings: filed as agonist, Compound concentration 10.0 uM
[2] = target: Tyrosine-protein kinase JAK2 (Homo sapiens) (UniProt O60674); settings: Compound concentration 1000.0 nM
[3] = tested on: ALK tyrosine kinase receptor (Homo sapiens), Q9UM73 [L1196M]; settings: Compound concentration 1000.0 nM
[4] = target: Muscarinic acetylcholine receptor M3 (Homo sapiens) (UniProt P20309); experiment: M3 (h) CEREP ligand profiling; settings: filed as antagonist, Compound concentration 10.0 uM
[5] = target: Tumor necrosis factor (Homo sapiens) (UniProt P01375); experiment: TNF-alpha (h) CEREP ligand profiling; settings: filed as agonist, Compound concentration 10.0 uM
[6] = target: Calcium/calmodulin-dependent protein kinase kinase 2 (Homo sapiens) (UniProt Q96RR4); settings: Compound concentration 1000.0 nM
[7] = target: Wee1-like protein kinase (Homo sapiens) (UniProt P30291); settings: Compound concentration 1000.0 nM
[8] = target: 5-hydroxytryptamine receptor 2A (Homo sapiens) (UniProt P28223); experiment: 5-HT2A (h) CEREP ligand profiling; settings: filed as antagonist, Compound concentration 10.0 uM
[9] = target: 5-hydroxytryptamine receptor 4 (Homo sapiens) (UniProt Q13639); experiment: 5-HT4e (h) CEREP ligand profiling; settings: filed as antagonist, Compound concentration 10.0 uM
[10] = target: 5'-AMP-activated protein kinase catalytic subunit alpha-1 (Homo sapiens) (UniProt Q13131); settings: Compound concentration 1000.0 nM
[11] = target: Hepatocyte growth factor receptor (Homo sapiens) (UniProt P08581); settings: Compound concentration 1000.0 nM
[12] = target: Rho-associated protein kinase 2 (Homo sapiens) (UniProt O75116); settings: Compound concentration 1000.0 nM
[13] = target: D(1A) dopamine receptor (Homo sapiens) (UniProt P21728); experiment: D1 (h) CEREP ligand profiling; settings: filed as antagonist, Compound concentration 10.0 uM
Chain of D(1A) dopamine receptor (Homo sapiens) (P21728 whole entry): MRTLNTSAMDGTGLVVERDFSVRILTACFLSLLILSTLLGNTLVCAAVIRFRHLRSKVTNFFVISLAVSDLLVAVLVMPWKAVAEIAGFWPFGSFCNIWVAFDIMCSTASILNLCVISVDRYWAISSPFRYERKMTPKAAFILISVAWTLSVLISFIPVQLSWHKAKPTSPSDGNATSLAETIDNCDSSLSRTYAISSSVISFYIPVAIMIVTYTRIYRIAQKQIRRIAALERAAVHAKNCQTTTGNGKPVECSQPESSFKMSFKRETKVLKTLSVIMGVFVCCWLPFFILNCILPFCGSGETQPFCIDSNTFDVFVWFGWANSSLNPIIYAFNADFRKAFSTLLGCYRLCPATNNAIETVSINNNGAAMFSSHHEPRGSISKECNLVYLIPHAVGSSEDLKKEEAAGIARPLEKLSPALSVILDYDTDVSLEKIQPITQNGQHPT

[14] = target: Glutamate [NMDA] receptor (Homo sapiens) (UniProt Q05586+Q12879+Q13224+O15399+O60391+Q14957+Q8TCU5); experiment: NMDA CEREP ligand profiling; type: protein-complex assay
[15] = target: 1-phosphatidylinositol 3-phosphate 5-kinase (Homo sapiens) (UniProt Q9Y2I7); settings: Compound concentration 1000.0 nM
[16] = target: T1, Alpha-1B adrenergic receptor (Homo sapiens) (UniProt P35368); experiment: alpha 1B (h) CEREP ligand profiling; settings: filed as antagonist, Compound concentration 10.0 uM
T1 sequence (whole entry): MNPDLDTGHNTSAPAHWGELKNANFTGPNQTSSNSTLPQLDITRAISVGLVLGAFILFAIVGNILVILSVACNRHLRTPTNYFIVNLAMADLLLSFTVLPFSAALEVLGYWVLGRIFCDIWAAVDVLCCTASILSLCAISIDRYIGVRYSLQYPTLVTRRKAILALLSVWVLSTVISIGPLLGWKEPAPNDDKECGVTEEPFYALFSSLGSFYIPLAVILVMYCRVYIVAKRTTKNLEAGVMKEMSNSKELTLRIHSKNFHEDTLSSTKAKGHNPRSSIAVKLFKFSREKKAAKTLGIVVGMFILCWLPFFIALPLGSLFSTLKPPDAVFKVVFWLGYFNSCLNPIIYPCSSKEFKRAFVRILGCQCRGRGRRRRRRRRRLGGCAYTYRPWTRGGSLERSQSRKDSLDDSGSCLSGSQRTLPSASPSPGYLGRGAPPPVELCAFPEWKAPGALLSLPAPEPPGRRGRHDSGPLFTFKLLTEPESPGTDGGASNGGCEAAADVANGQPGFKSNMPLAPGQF

[17] = target: Ribosomal protein S6 kinase alpha-4 (Homo sapiens) (UniProt O75676); settings: Compound concentration 1000.0 nM
[18] = target: Receptor-type tyrosine-protein kinase FLT3 (Homo sapiens) (UniProt P36888); settings: Compound concentration 1000.0 nM
[19] = target: Interleukin-1 receptor-associated kinase 4 (Homo sapiens) (UniProt Q9NWZ3); settings: Compound concentration 1000.0 nM
[20] = target: Serine/threonine-protein kinase VRK2 (Homo sapiens) (UniProt Q86Y07); settings: Compound concentration 1000.0 nM
Chain of Serine/threonine-protein kinase VRK2 (Homo sapiens) (Q86Y07 whole entry): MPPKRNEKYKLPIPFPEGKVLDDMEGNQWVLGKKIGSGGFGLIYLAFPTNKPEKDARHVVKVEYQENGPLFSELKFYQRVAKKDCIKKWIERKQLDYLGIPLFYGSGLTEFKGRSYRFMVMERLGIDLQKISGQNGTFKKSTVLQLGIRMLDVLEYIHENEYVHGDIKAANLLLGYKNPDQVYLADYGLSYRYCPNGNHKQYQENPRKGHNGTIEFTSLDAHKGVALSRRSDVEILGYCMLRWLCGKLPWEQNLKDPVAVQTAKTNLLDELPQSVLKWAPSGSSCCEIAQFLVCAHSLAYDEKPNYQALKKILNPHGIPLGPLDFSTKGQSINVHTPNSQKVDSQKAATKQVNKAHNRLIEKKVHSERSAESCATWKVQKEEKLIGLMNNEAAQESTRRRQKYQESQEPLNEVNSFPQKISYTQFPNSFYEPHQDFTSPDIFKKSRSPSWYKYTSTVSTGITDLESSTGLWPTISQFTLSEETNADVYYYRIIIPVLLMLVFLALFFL

[21] = target: Insulin receptor-related protein (Homo sapiens) (UniProt P14616); settings: Compound concentration 1000.0 nM
[22] = target: Glucocorticoid receptor (Homo sapiens) (UniProt P04150); experiment: GR (h) CEREP ligand profiling; settings: filed as agonist, Compound concentration 10.0 uM
Chain of Glucocorticoid receptor (Homo sapiens) (P04150 whole entry): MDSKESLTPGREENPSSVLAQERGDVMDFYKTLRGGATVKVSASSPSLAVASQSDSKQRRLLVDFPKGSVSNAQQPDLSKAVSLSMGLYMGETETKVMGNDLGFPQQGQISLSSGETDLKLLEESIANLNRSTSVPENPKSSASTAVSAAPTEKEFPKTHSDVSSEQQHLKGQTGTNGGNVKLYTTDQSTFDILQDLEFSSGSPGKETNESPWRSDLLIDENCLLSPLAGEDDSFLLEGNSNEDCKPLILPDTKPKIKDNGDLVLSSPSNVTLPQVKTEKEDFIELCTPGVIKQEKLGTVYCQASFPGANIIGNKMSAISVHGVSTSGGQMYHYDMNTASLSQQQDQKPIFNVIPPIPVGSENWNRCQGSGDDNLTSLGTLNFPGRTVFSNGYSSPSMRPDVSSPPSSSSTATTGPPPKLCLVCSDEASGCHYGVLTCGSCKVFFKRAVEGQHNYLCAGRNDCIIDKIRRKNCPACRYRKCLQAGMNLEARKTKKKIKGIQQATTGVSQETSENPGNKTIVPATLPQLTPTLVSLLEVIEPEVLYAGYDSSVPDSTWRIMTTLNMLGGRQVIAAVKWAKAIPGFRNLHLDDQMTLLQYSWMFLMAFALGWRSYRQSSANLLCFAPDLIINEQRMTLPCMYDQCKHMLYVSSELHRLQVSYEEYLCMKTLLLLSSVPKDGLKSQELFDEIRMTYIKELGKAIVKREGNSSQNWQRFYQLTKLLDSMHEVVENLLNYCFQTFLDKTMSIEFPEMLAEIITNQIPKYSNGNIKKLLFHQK

[23] = target: Serine/threonine-protein kinase MRCK gamma (Homo sapiens) (UniProt Q6DT37); settings: Compound concentration 1000.0 nM
[24] = target: Serine/threonine-protein kinase TAO1 (Homo sapiens) (UniProt Q7L7X3); settings: Compound concentration 1000.0 nM
[25] = target: Homeodomain-interacting protein kinase 4 (Homo sapiens) (UniProt Q8NE63); settings: Compound concentration 1000.0 nM
[26] = target: Beta-1 adrenergic receptor (Homo sapiens) (UniProt P08588); experiment: beta 1 (h) CEREP ligand profiling; settings: filed as agonist, Compound concentration 10.0 uM
Chain of Beta-1 adrenergic receptor (Homo sapiens) (P08588 whole entry, looked up): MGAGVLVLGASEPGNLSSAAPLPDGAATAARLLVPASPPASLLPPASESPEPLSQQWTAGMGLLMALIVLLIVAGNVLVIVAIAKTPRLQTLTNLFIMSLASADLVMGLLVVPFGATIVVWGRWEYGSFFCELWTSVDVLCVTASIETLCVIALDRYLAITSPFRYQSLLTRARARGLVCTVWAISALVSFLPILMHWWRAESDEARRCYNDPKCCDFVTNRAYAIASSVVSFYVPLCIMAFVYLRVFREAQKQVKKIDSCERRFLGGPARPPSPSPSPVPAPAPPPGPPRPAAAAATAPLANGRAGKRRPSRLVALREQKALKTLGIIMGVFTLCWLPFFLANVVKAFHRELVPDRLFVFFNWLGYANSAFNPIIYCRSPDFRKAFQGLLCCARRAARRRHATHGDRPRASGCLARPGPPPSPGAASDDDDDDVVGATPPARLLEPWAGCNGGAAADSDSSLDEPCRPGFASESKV

[27] = target: Proto-oncogene tyrosine-protein kinase ROS (Homo sapiens) (UniProt P08922); settings: Compound concentration 1000.0 nM
[28] = target: Serine/threonine-protein kinase LATS1 (Homo sapiens) (UniProt O95835); settings: Compound concentration 1000.0 nM
Chain of Serine/threonine-protein kinase LATS1 (Homo sapiens) (O95835 whole entry): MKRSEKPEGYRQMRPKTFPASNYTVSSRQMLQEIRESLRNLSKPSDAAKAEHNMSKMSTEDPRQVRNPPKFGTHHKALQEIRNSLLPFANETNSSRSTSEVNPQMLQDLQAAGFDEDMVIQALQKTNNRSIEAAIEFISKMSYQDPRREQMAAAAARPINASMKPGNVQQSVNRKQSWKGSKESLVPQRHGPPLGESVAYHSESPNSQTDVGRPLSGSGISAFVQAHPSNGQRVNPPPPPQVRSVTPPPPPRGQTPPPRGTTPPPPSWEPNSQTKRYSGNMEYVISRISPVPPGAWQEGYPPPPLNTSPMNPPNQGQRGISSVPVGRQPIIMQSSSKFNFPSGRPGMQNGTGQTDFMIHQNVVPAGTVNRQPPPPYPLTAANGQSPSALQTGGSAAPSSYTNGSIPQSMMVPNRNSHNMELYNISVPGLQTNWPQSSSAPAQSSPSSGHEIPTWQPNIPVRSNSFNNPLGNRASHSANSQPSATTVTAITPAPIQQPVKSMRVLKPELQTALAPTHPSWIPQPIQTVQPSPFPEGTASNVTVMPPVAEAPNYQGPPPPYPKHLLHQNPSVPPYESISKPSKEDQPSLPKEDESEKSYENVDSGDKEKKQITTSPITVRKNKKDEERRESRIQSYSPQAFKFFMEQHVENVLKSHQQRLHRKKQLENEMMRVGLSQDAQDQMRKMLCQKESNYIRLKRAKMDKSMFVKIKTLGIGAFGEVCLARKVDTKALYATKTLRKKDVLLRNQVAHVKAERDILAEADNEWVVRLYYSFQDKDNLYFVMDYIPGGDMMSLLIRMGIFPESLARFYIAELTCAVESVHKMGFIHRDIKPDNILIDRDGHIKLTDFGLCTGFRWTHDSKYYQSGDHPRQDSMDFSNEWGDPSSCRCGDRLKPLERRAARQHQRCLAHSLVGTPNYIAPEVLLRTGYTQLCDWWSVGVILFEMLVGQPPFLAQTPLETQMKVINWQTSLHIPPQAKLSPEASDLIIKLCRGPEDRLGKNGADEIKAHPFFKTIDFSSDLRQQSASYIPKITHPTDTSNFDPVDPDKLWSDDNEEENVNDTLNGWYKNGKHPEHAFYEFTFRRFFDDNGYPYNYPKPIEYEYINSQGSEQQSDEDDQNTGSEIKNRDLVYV

[29] = target: 5-hydroxytryptamine receptor 7 (Homo sapiens) (UniProt P34969); experiment: 5-HT7 (h) CEREP ligand profiling; settings: filed as agonist, Compound concentration 10.0 uM
Chain of 5-hydroxytryptamine receptor 7 (Homo sapiens) (P34969 whole entry): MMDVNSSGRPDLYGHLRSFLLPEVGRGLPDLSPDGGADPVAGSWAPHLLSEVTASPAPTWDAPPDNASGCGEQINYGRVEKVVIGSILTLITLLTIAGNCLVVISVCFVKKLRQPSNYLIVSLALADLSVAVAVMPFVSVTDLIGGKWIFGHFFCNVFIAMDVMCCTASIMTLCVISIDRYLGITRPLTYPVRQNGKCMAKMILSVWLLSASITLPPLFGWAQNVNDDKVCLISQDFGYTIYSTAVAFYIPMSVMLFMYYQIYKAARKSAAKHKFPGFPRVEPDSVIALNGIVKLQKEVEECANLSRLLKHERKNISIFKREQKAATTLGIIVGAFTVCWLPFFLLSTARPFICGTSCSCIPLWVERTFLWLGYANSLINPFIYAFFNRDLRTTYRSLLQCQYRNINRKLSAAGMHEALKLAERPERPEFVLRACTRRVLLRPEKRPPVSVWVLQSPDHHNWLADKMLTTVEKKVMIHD

[30] = target: Calcium/calmodulin-dependent protein kinase type 1D (Homo sapiens) (UniProt Q8IU85); settings: Compound concentration 1000.0 nM
Chain of Calcium/calmodulin-dependent protein kinase type 1D (Homo sapiens) (Q8IU85 whole entry, looked up): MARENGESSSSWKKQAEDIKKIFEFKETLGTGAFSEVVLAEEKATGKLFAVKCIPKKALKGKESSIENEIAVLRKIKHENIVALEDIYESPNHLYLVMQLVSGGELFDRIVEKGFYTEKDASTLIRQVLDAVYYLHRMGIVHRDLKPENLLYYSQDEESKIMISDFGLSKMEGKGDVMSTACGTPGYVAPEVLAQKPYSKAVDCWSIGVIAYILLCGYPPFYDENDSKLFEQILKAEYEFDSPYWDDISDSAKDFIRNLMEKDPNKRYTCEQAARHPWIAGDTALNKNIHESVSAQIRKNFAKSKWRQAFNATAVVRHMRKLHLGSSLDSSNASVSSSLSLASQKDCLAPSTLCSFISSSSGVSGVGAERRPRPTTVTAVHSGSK

[31] = target: Alpha-1D adrenergic receptor (Homo sapiens) (UniProt P25100); settings: Compound concentration 10.0 uM
Chain of Alpha-1D adrenergic receptor (Homo sapiens) (P25100 whole entry): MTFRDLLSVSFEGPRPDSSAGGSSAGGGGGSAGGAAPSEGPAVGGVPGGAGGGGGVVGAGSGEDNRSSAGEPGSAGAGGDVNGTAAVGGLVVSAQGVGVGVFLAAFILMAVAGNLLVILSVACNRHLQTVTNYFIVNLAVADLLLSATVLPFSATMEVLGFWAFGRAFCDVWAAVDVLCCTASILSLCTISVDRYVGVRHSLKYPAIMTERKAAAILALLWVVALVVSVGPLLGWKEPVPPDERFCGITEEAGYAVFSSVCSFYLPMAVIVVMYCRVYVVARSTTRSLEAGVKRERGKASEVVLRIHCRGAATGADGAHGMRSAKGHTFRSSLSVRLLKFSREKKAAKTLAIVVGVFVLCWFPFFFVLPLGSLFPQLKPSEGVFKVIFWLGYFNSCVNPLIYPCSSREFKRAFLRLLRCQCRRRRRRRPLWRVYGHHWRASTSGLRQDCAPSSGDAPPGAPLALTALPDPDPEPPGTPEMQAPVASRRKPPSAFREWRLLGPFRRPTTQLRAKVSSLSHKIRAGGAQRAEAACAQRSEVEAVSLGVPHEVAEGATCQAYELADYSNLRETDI

[32] = target: Aurora kinase A (Homo sapiens) (UniProt O14965); settings: Compound concentration 1000.0 nM
[33] = target: GABA-A receptor; anion channel (Rattus norvegicus) (UniProt O09028+P15431+P18506+P18508+P19969+P20236+P23574+P23576+P28471+P28473+P30191+P62813+P63079+P63138+Q91ZM7+Q9ES14); settings: Compound concentration 10.0 uM
[34] = target: Serine/threonine-protein kinase Nek9 (Homo sapiens) (UniProt Q8TD19); settings: Compound concentration 1000.0 nM
[35] = target: Sigma intracellular receptor 2 (Homo sapiens, UniProt Q5BJF2); experiment: GPCRScan assay: inhibition of Sigma 2; design: radioligand conc. used [nm] 5.0, parental cells HEKT
Chain of Sigma intracellular receptor 2 (Q5BJF2 whole entry): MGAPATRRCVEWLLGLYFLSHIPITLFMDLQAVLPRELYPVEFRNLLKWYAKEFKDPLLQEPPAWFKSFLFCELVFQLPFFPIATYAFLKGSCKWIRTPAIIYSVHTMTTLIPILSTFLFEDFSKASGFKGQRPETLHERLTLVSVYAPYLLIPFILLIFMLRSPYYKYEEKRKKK

[36] = target: Epidermal growth factor receptor (Homo sapiens) (UniProt P00533); settings: Compound concentration 1000.0 nM

SMILES	inhibition [1]	residual activity [2]	residual activity [3]	inhibition [4]	inhibition [5]	residual activity [6]	residual activity [7]	inhibition [8]	inhibition [9]	residual activity [10]	residual activity [11]	residual activity [12]	inhibition [13]	residual activity [15]	inhibition [16]	residual activity [17]	residual activity [18]	residual activity [19]	residual activity [20]	residual activity [21]	other results
CNC(=O)Nc1ccc2c(c1)CC[C@@]21OC(=O)N(CC(=O)N(Cc2ccc(F)cc2)[C@@H](C)C(F)(F)F)C1=O [A-485]	11%	83%	75%	-5%	1%	76%	80%	14%	10%	100%	88%	96%	-4%	58%	4%	72%	100%	78%	91%	96%	inhibition ([14]; filed as antagonist; Compound concentration 10.0 uM): 4%; inhibition [22]: 13%; residual activity [23]: 88%; residual activity [24]: 94%; residual activity [25]: 97%; inhibition [26]: 17%; residual activity [27]: 80%; residual activity [28]: 60%; inhibition [29]: 16%; residual activity [30]: 94%; inhibition [31]: -1.58%; residual activity [32]: 80%; inhibition [33]: 8.97%; residual activity [34]: 78%; Ki ([35]; read-out: Ki): 5.53 µM; Ki ([35]; read-out: pKi (converted)): 5.13 µM; residual activity [36]: 100%
CNC(=O)Nc1ccc2c(c1)[C@@]1(CC2)OC(=O)N(CC(=O)N(Cc2ccc(F)cc2)[C@@H](C)C(F)(F)F)C1=O [A-486]	1%	100%	88%	0%	1%	99%	100%	8%	9%	91%	100%	95%	-5%	72%	-6%	88%	96%	94%	97%	100%	inhibition ([14]; filed as antagonist, Compound concentration 10.0 uM): 2%; inhibition [22]: 16%; residual activity [23]: 88%; residual activity [24]: 97%; residual activity [25]: 100%; inhibition [26]: 6%; residual activity [27]: 87%; residual activity [28]: 59%; inhibition [29]: 6%; residual activity [30]: 100%; inhibition [31]: 9.73%; residual activity [32]: 79%; inhibition [33]: 9.54%; residual activity [34]: 95%; Ki ([35]; read-out: Ki): 3.27 µM; residual activity [36]: 100%
